The values below come from patent publication US20140371210A1, “METHODS AND COMPOSITIONS FOR RAPID TRANSBUCCAL DELIVERY OF ACTIVE AGENTS” (Jaleva Pharmaceuticals, LLC, priority 2011, published 2014).

The conditions of series [1]: cited from earlier work.

Like-named read-outs stand apart in the source and are kept apart here.

What is called logD is the decadic logarithm of the distribution of all forms, ionised or not, between an organic phase and buffer at a given pH.

In the case of `CN1CCCC1c1cccnc1` (stereo not shown) [nicotine], the “cytoprotective effect of resin composition” value (“cytoprotective effect” below) with human cells was “cytoprotective effect has been shown”. For the same compound, the logD in series [1] (pH 7.4) was −0.62. In the case of `Cc1nnc2n1-c1ccc(Cl)cc1C(c1ccccc1)=NC2` [alprazolam], in the series on human cells, the “cytoprotective effect” value is given as “cytoprotective effect has been shown”. Regarding `CCCc1nn(C)c2c(=O)[nH]c(-c3cc(S(=O)(=O)N4CCN(C)CC4)ccc3OCC)nc12` [sildenafil], the logD is given as 1.83 in series [1] (pH 5.5) and 2.26 in series [1] (pH 7.4). As to `CC(C)Cc1ccc(C(C)C(=O)O)cc1` (stereo not shown) [ibuprofen], the “cytoprotective effect” value with human cells is “cytoprotective effect has been shown”. For the compound `CCCc1nc(C)c2c(=O)[nH]c(-c3cc(S(=O)(=O)N4CCN(CC)CC4)ccc3OCC)nn12` [vardenafil], the values for the logD in series [1] (pH 5.5) and in series [1] (pH 7.4) were 2.26 and 3.71, respectively.

For `CNS(=O)(=O)CCc1ccc2[nH]cc(C3CCN(C)CC3)c2c1` [naratriptan], the logD in series [1] (pH 7.4) is recorded as −0.85. Consider `O=C(O)Cc1ccccc1Nc1c(Cl)cccc1Cl` [diclofenac], for which, in the series on human cells, the “cytoprotective effect” value was “cytoprotective effect has been shown”. With `Cc1nccn1CC1CCc2c(c3ccccc3n2C)C1=O` (stereo not shown) [ondansetron], in the series with human cells, the “cytoprotective effect” value is given as “cytoprotective effect has been shown”. The logD in series [1] (pH 7.4) is 1.2. Turning to `CC[C@H]1OC(=O)[C@H](C)[C@@H](O[C@H]2C[C@@](C)(OC)[C@@H](O)[C@H](C)O2)[C@H](C)[C@@H](O[C@@H]2O[C@H](C)C[C@H](N(C)C)[C@H]2O)[C@](C)(O)C[C@@H](C)C(=O)[C@H](C)[C@@H](O)[C@]1(C)O` [erythromycin], the “cytoprotective effect” value in the series on human cells was “cytoprotective effect has been shown”.
